The values below come from paper PMC12241633, “Irinotecan alleviates chemoresistance to anthracyclines through the inhibition of AARS1-mediated BLM lactylation and homologous recombination repair” (Signal Transduction and Targeted Therapy, 2025).

Assay in all cases: SPR (Biacore T200), multicycle kinetics, global […] Langmuir fit
Type in all cases: binding

The target in assay [1] is T1, BLM (Homo sapiens, UniProt P54132).
T1 construct: recombinant, pET28a-sumo in E. coli BL21(DE3); amine-coupled to CM5 chip
T1 sequence (P54132 whole entry): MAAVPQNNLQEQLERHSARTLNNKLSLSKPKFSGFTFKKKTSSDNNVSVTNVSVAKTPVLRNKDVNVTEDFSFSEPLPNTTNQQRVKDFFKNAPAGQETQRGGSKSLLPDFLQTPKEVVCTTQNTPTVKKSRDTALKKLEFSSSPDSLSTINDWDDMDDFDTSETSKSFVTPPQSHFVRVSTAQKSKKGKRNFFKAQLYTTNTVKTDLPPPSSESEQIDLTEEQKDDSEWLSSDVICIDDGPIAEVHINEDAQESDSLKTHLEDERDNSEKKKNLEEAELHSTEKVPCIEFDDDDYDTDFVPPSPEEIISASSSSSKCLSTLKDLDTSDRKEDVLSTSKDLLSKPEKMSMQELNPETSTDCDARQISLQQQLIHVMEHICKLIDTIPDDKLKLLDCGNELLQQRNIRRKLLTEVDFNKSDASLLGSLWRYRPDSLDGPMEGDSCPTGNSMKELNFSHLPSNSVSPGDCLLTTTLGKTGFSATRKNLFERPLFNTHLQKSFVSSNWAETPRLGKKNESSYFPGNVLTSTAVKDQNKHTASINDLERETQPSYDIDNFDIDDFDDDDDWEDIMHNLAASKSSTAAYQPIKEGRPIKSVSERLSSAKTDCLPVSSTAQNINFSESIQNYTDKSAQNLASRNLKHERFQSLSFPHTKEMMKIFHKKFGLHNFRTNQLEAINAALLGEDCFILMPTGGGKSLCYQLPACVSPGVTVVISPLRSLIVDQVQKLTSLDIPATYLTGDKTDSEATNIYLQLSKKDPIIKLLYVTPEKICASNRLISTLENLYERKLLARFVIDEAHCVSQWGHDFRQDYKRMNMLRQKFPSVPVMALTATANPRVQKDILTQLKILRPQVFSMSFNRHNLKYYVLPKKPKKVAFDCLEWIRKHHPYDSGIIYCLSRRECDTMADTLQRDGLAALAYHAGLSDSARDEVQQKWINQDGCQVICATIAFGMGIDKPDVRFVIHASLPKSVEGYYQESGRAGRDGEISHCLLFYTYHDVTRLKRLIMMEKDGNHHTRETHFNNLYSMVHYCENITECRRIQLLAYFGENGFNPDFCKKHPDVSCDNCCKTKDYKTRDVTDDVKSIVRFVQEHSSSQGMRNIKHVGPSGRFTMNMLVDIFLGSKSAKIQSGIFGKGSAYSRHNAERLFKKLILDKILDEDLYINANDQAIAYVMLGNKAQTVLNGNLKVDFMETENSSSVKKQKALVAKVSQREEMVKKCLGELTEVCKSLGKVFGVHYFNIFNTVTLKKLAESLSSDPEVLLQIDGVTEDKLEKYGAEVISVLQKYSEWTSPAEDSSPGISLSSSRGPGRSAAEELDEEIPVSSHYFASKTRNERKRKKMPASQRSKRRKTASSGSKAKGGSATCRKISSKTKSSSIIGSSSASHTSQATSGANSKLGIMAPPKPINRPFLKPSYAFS

Assay [2] concerns the target T2, BLM (Homo sapiens, UniProt P54132, K38R).
T2 construct: recombinant, pET28a-sumo in E. coli BL21(DE3); amine-coupled to CM5 chip

Assay [3] deals with T3, BLM (Homo sapiens, UniProt P54132, K31R).
T3 construct: recombinant, pET28a-sumo in E. coli BL21(DE3); amine-coupled to CM5 chip
T3 sequence (P54132 whole entry K31R): as the sequence (P54132 whole entry) above, with K31R counted along it

T2 sequence (P54132 whole entry K38R): as the sequence (P54132 whole entry) above, with K38R counted along it

In the case of `CCc1c2c(nc3ccc(OC(=O)N4CCC(N5CCCCC5)CC4)cc13)-c1cc3c(c(=O)n1C2)COC(=O)[C@]3(O)CC` [irinotecan], the Kd (as a rule, the equilibrium constant for the complex coming apart) on BLM [1] was determined as 251 nM; at BLM [2], 911 nM; on BLM [3], 776 nM.
